In patent US20150209315A1 (Cumberland Pharmaceuticals, priority 2009, published 2015):

How the values were obtained:
Assay type in all cases: in vivo, human
[1] = system: post-operative adult patients; test: Example 1: time to GI motility, ambulation, liquid/solid intake, length of hospital stay; conditions: for Time to GI motility: value + SD
[2] = system: post-operative adult patients; test: Example 2: patient self-assessment of pain, VAS with movement; conditions: 800 mg
[3] = system: post-operative adult patients; test: Example 2: patient self-assessment of pain, VAS at rest; conditions: 800 mg
[4] = system: post-operative adult patients; test: Example 2: treatment failures; conditions: 800 mg; ITT
Experimental: Eligible patients were randomized to one of the two treatment groups. All patients were able (but were not required) to receive morphine until approximately 45 minutes before the end of the surgical procedure. After that time, only fentanyl was allowed until the end of the operation. The first dose of ibuprofen was administered at approximately the initiation of skin closure. […] Other than ibuprofen or placebo, only morphine was administered for pain. […] Additional morphine could be administered at the discretion of the treating physician if adequate pain control had still not been achieved. Patients given non-morphine analgesics were classified as treatment failures. Treatment failures were not replaced. A treatment failure was defined as a patient that required narcotic pain medication, other than morphine, or non-narcotic medications including the use of another NSAID through the treatment period. If other narcotics (other than morphine) or NSAIDS were started, CTM was discontinued.

[5] = system: patients undergoing orthopedic surgical procedures; test: Example 3: pain with movement measured with VAS; conditions: 800 mg, immediately post-surgery
Experimental: Efficacy was measured by comparing the reduction in morphine use over the 24 hours immediately post surgery. Efficacy was measured by reduction in the requirement for the narcotic analgesic, morphine, in the 24 hours post surgery.
The Clinical Trial Material (“CTM”) was mixed in 250 mL normal saline. Saline was chosen as the control group (placebo) for this study, to ensure blinding and allow for analysis of treatment effect.
The study participants were randomized based on criteria for an efficacy evaluable population (EEP) versus an intent to treat population (ITT).
Eligible patients were randomized to one of the two treatment groups.
Patients were evaluated and compared for morphine requirements between the active doses and placebo using analysis of variance and covariance procedures at an overall alpha level of 0.05. Secondary efficacy parameters were also evaluated and compared among the treatment groups using appropriate statistical methods described in the statistical analysis section of the protocol. For the adverse events, instead of using an unadjusted Chi-square test and a Cochran-Mantel-Haenszel test adjusted for center to compare treatment groups with respect to the numbers of patients reporting AEs, a Fisher's exact test was used to compare treatment groups for any AE that was reported by five or more patients.

[6] = system: fever in hospitalized patients; test: Clinical trials of intravenous ibuprofen for fever

CC(C)Cc1ccc(C(C)C(=O)O)cc1 (stereo not drawn) [Ibuprofen, 2-(4-isobutylphenyl) propionic acid]
Time to GI motility ([1]; 400 mg, EEP): 20.2+1.30 hours
Time to GI motility ([1]; 400 mg, ITT): 20.1+1.28 hours
Time to GI motility ([1]; 800 mg, EEP): 21.2+1.63 hours
Time to GI motility ([1]; 800 mg, ITT): 21.6+1.50 hours
time to liquid intake vs placebo ([1]; ibuprofen treated group, ITT): not found to be statistically significant
time to solid intake vs placebo ([1]; ibuprofen treated group, ITT): not found to be statistically significant
Time to ambulation vs placebo ([1]; ibuprofen treated groups, ITT): found not to be statistically significant faster
Length of hospital stay vs placebo ([1]; treated groups, ITT): not found to be statistically significant
VAS Score measured with Movement (median) ([2]; EEP, 1-Hour): 9.0
VAS Score measured with Movement, % Reduction vs Placebo ([2]; EEP, 1-Hour): −12.5%
VAS Score measured with Movement (median) ([2]; EEP, 3-Hour): 7.0
VAS Score measured with Movement, % Reduction vs Placebo ([2]; EEP, 3-Hour): 0.0%
VAS Score measured with Movement (median) ([2]; EEP, 6-Hour): 6.0
VAS Score measured with Movement, % Reduction vs Placebo ([2]; EEP, 6-Hour): 0.0%
VAS Score measured with Movement (median) ([2]; EEP, 9-Hour): 5.0
VAS Score measured with Movement, % Reduction vs Placebo ([2]; EEP, 9-Hour): 0.0%
VAS Score measured with Movement (median) ([2]; EEP, 12-Hour): 4.0
VAS Score measured with Movement, % Reduction vs Placebo ([2]; EEP, 12-Hour): 20.0%
VAS Score measured with Movement (median) ([2]; EEP, 15-Hour): 3.0
VAS Score measured with Movement (median) ([2]; EEP, 18-Hour): 3.0
VAS Score measured with Movement, % Reduction vs Placebo ([2]; EEP, 18-Hour): 25.0%
VAS Score measured with Movement (median) ([2]; EEP, 21-Hour): 3.0
VAS Score measured with Movement, % Reduction vs Placebo ([2]; EEP, 21-Hour): 25.0%
VAS Score measured with Movement (median) ([2]; EEP, 24-Hour): 3.0
VAS Score measured with Movement, % Reduction vs Placebo ([2]; EEP, 24-Hour): 40.0%
VAS Score measured with Movement (median) ([2]; ITT, 1-Hour): 9.0
VAS Score measured with Movement, % Reduction vs Placebo ([2]; ITT, 1-Hour): −12.5%
VAS Score measured with Movement (median) ([2]; ITT, 3-Hour): 7.0
VAS Score measured with Movement, % Reduction vs Placebo ([2]; ITT, 3-Hour): 0.0%
VAS Score measured with Movement (median) ([2]; ITT, 6-Hour): 6.0
VAS Score measured with Movement, % Reduction vs Placebo ([2]; ITT, 6-Hour): 0.0%
VAS Score measured with Movement (median) ([2]; ITT, 9-Hour): 5.0
VAS Score measured with Movement, % Reduction vs Placebo ([2]; ITT, 9-Hour): 3.8%
VAS Score measured with Movement (median) ([2]; ITT, 12-Hour): 4.3
VAS Score measured with Movement, % Reduction vs Placebo ([2]; ITT, 12-Hour): 10.4%
VAS Score measured with Movement (median) ([2]; ITT, 15-Hour): 3.4
VAS Score measured with Movement, % Reduction vs Placebo ([2]; ITT, 15-Hour): 22.7%
VAS Score measured with Movement (median) ([2]; ITT, 18-Hour): 3.0
VAS Score measured with Movement (median) ([2]; ITT, 21-Hour): 3.0
VAS Score measured with Movement, % Reduction vs Placebo ([2]; ITT, 21-Hour): 34.8%
VAS Score measured with Movement (median) ([2]; ITT, 24-Hour): 3.6
VAS Score measured with Movement, % Reduction vs Placebo ([2]; ITT, 24-Hour): 20.0%
VAS Score measured at Rest (median) ([3]; EEP, 1-Hour): 8.0
VAS Score measured at Rest, % Reduction vs Placebo ([3]; EEP, 1-Hour): 0.0%
VAS Score measured at Rest (median) ([3]; EEP, 3-Hour): 5.0
VAS Score measured at Rest, % Reduction vs Placebo ([3]; EEP, 3-Hour): 16.7%
VAS Score measured at Rest (median) ([3]; EEP, 6-Hour): 4.0
VAS Score measured at Rest, % Reduction vs Placebo ([3]; EEP, 6-Hour): 20.0%
VAS Score measured at Rest (median) ([3]; EEP, 9-Hour): 3.0
VAS Score measured at Rest (median) ([3]; EEP, 12-Hour): 2.5
VAS Score measured at Rest, % Reduction vs Placebo ([3]; EEP, 12-Hour): 16.7%
VAS Score measured at Rest (median) ([3]; EEP, 15-Hour): 2.0
VAS Score measured at Rest, % Reduction vs Placebo ([3]; EEP, 15-Hour): 33.3%
VAS Score measured at Rest (median) ([3]; EEP, 18-Hour): 2.0
VAS Score measured at Rest, % Reduction vs Placebo ([3]; EEP, 18-Hour): 33.3%
VAS Score measured at Rest (median) ([3]; EEP, 21-Hour): 1.0
VAS Score measured at Rest, % Reduction vs Placebo ([3]; EEP, 21-Hour): 66.7%
VAS Score measured at Rest (median) ([3]; EEP, 24-Hour): 2.0
VAS Score measured at Rest, % Reduction vs Placebo ([3]; EEP, 24-Hour): 33.3%
VAS Score measured at Rest (median) ([3]; ITT, 1-Hour): 8.0
VAS Score measured at Rest, % Reduction vs Placebo ([3]; ITT, 1-Hour): 0.0%
VAS Score measured at Rest (median) ([3]; ITT, 3-Hour): 5.7
VAS Score measured at Rest, % Reduction vs Placebo ([3]; ITT, 3-Hour): 5.0%
VAS Score measured at Rest (median) ([3]; ITT, 6-Hour): 4.0
VAS Score measured at Rest, % Reduction vs Placebo ([3]; ITT, 6-Hour): 11.1%
VAS Score measured at Rest (median) ([3]; ITT, 9-Hour): 3.0
VAS Score measured at Rest (median) ([3]; ITT, 12-Hour): 2.7
VAS Score measured at Rest, % Reduction vs Placebo ([3]; ITT, 12-Hour): 20.6%
VAS Score measured at Rest (median) ([3]; ITT, 15-Hour): 2.0
VAS Score measured at Rest, % Reduction vs Placebo ([3]; ITT, 15-Hour): 31.0%
VAS Score measured at Rest (median) ([3]; ITT, 18-Hour): 2.0
VAS Score measured at Rest, % Reduction vs Placebo ([3]; ITT, 18-Hour): 31.0%
VAS Score measured at Rest (median) ([3]; ITT, 21-Hour): 2.0
VAS Score measured at Rest, % Reduction vs Placebo ([3]; ITT, 21-Hour): 33.3%
VAS Score measured at Rest (median) ([3]; ITT, 24-Hour): 2.0
VAS Score measured at Rest, % Reduction vs Placebo ([3]; ITT, 24-Hour): 31.0%
treatment failures, number of patients [4]: 7
treatment failures, percent of patients [4]: 4%
decrease in the mean VAS with movement ([5]; AT): 13.9%
decrease in the mean VAS with movement ([5]; efficacy evaluable): 13.6%
decrease in the mean VAS with movement ([5]; intent-to-treat): 14.3%
treated patients with reduced fever ([6]; at 4 hours): 100%
placebo-treated vs IV Ibuprofen treated patients with uncontrolled fever ([6]; at 24 hours): ~4 times
reduction in temperature ([6]; critically ill patients, 48-hour study period): Significant reduction in temperature was maintained
acetaminophen requirement and fever control vs acetaminophen alone ([6]; critically ill patients, subset analysis): required less acetaminophen and had better fever control
Rapid fever reduction seen as fast as ([6]; malaria patients): 30 min
patients with significant fever reduction ([6]; phase 3 clinical trial, within 4 hours, vs 32% with placebo): 77%
